Experimental data: PubChem BioAssay (NCI)
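Cultured in 96-well plates, cells were exposed to test compound for 48 hours across five concentrations. TGI marks complete inhibition of growth.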

Legend:
Assay in all cases: DTP human tumour cell line panel, 48 h
ACHN renal = tested on: ACHN renal
U251 CNS = tested on: U251 CNS
MCF7 breast = tested on: MCF7 breast
SW-620 colon = tested on: SW-620 colon
MDA-N = tested on: MDA-N
RPMI-8226 leukemia = tested on: RPMI-8226 leukemia
COLO 205 colon = tested on: COLO 205 colon
HOP-62 NSCLC = tested on: HOP-62 NSCLC
OVCAR-5 ovarian = tested on: OVCAR-5 ovarian
K-562 leukemia = tested on: K-562 leukemia
SNB-19 CNS = tested on: SNB-19 CNS
PC-3 prostate = tested on: PC-3 prostate
OVCAR-4 ovarian = tested on: OVCAR-4 ovarian
UO-31 renal = tested on: UO-31 renal
T-47D breast = tested on: T-47D breast
TK-10 renal = tested on: TK-10 renal
MALME-3M melanoma = tested on: MALME-3M melanoma
IGROV1 ovarian = tested on: IGROV1 ovarian
A498 renal = tested on: A498 renal
UACC-257 melanoma = tested on: UACC-257 melanoma
NCI-H522 lung = tested on: NCI-H522 lung
SNB-75 CNS = tested on: SNB-75 CNS
HT29 colon = tested on: HT29 colon
HCC-2998 colon = tested on: HCC-2998 colon
NCI/ADR-RES ovarian = tested on: NCI/ADR-RES ovarian
OVCAR-8 ovarian = tested on: OVCAR-8 ovarian
HS 578T breast = tested on: HS 578T breast
CCRF-CEM leukemia = tested on: CCRF-CEM leukemia
M14 melanoma = tested on: M14 melanoma
KM12 colon = tested on: KM12 colon
MDA-MB-435 = tested on: MDA-MB-435
SK-OV-3 ovarian = tested on: SK-OV-3 ovarian
SF-295 CNS = tested on: SF-295 CNS
EKVX NSCLC = tested on: EKVX NSCLC
SK-MEL-28 melanoma = tested on: SK-MEL-28 melanoma
SF-268 CNS = tested on: SF-268 CNS
SN12C renal = tested on: SN12C renal
SF-539 CNS = tested on: SF-539 CNS
SK-MEL-5 melanoma = tested on: SK-MEL-5 melanoma
RXF 393 renal = tested on: RXF 393 renal
NCI-H460 lung = tested on: NCI-H460 lung
CAKI-1 renal = tested on: CAKI-1 renal
MDA-MB-231 breast = tested on: MDA-MB-231 breast
MOLT-4 leukemia = tested on: MOLT-4 leukemia
LOX IMVI melanoma = tested on: LOX IMVI melanoma
A549 NSCLC = tested on: A549 NSCLC
HCT-15 colon = tested on: HCT-15 colon
OVCAR-3 ovarian = tested on: OVCAR-3 ovarian
786-0 renal = tested on: 786-0 renal
HOP-92 NSCLC = tested on: HOP-92 NSCLC
HL-60(TB) leukemia = tested on: HL-60(TB) leukemia
NCI-H226 lung = tested on: NCI-H226 lung
HCT-116 colon = tested on: HCT-116 colon
DU-145 prostate = tested on: DU-145 prostate
SK-MEL-2 melanoma = tested on: SK-MEL-2 melanoma
NCI-H23 lung = tested on: NCI-H23 lung
UACC-62 melanoma = tested on: UACC-62 melanoma
SR leukemia = tested on: SR leukemia

CC(C)(C)C(=O)C(C(=O)c1ccccc1)C(=O)C(C)(C)C
TGI (ACHN renal): > 100 µM | TGI (U251 CNS): > 100 µM | TGI (MCF7 breast): > 100 µM | TGI (SW-620 colon): > 100 µM | TGI (MDA-N): > 100 µM | TGI (RPMI-8226 leukemia): > 100 µM | TGI (COLO 205 colon): > 100 µM | TGI (HOP-62 NSCLC): > 100 µM | TGI (OVCAR-5 ovarian): > 100 µM | TGI (K-562 leukemia): > 100 µM | TGI (SNB-19 CNS): > 100 µM | TGI (PC-3 prostate): > 100 µM | TGI (OVCAR-4 ovarian): > 100 µM | TGI (UO-31 renal): > 100 µM | TGI (T-47D breast): > 100 µM | TGI (TK-10 renal): > 100 µM | TGI (MALME-3M melanoma): > 100 µM | TGI (IGROV1 ovarian): > 100 µM | TGI (A498 renal): > 100 µM | TGI (UACC-257 melanoma): > 100 µM | TGI (NCI-H522 lung): > 100 µM | TGI (SNB-75 CNS): > 100 µM | TGI (HT29 colon): > 100 µM | TGI (HCC-2998 colon): > 100 µM | TGI (NCI/ADR-RES ovarian): > 100 µM | TGI (OVCAR-8 ovarian): > 100 µM | TGI (HS 578T breast): > 100 µM | TGI (CCRF-CEM leukemia): > 100 µM | TGI (M14 melanoma): > 100 µM | TGI (KM12 colon): > 100 µM | TGI (MDA-MB-435): > 100 µM | TGI (SK-OV-3 ovarian): > 100 µM | TGI (SF-295 CNS): > 100 µM | TGI (EKVX NSCLC): > 100 µM | TGI (SK-MEL-28 melanoma): > 100 µM | TGI (SF-268 CNS): > 100 µM | TGI (SN12C renal): > 100 µM | TGI (SF-539 CNS): > 100 µM | TGI (SK-MEL-5 melanoma): > 100 µM | TGI (RXF 393 renal): > 100 µM | TGI (NCI-H460 lung): > 100 µM | TGI (CAKI-1 renal): > 100 µM | TGI (MDA-MB-231 breast): > 100 µM | TGI (MOLT-4 leukemia): > 100 µM | TGI (LOX IMVI melanoma): > 100 µM | TGI (A549 NSCLC): > 100 µM | TGI (HCT-15 colon): > 100 µM | TGI (OVCAR-3 ovarian): > 100 µM | TGI (786-0 renal): > 100 µM | TGI (HOP-92 NSCLC): > 100 µM | TGI (HL-60(TB) leukemia): > 100 µM | TGI (NCI-H226 lung): > 100 µM | TGI (HCT-116 colon): > 100 µM | TGI (DU-145 prostate): > 100 µM | TGI (SK-MEL-2 melanoma): > 100 µM | TGI (NCI-H23 lung): > 100 µM

CC(=O)c1c2c(cc3c1CC1(Cc4cc5c(cc4C1)CCCC5)C3)CCCC2
TGI (ACHN renal): 38.8 µM | TGI (U251 CNS): > 100 µM | TGI (MCF7 breast): 56.9 µM | TGI (MDA-N): 56.5 µM | TGI (RPMI-8226 leukemia): 81.8 µM | TGI (COLO 205 colon): > 100 µM | TGI (HOP-62 NSCLC): > 100 µM | TGI (OVCAR-5 ovarian): > 100 µM | TGI (K-562 leukemia): 29.4 µM | TGI (PC-3 prostate): > 100 µM | TGI (OVCAR-4 ovarian): > 100 µM | TGI (UO-31 renal): > 100 µM | TGI (T-47D breast): > 100 µM | TGI (TK-10 renal): > 100 µM | TGI (MALME-3M melanoma): > 100 µM | TGI (IGROV1 ovarian): > 100 µM | TGI (A498 renal): > 100 µM | TGI (UACC-257 melanoma): 55.7 µM | TGI (NCI-H522 lung): > 100 µM | TGI (SNB-75 CNS): 72.2 µM | TGI (HT29 colon): > 100 µM | TGI (HCC-2998 colon): > 100 µM | TGI (NCI/ADR-RES ovarian): > 100 µM | TGI (UACC-62 melanoma): > 100 µM | TGI (OVCAR-8 ovarian): > 100 µM | TGI (HS 578T breast): > 100 µM | TGI (M14 melanoma): > 100 µM | TGI (KM12 colon): > 100 µM | TGI (MDA-MB-435): 53.1 µM | TGI (SK-OV-3 ovarian): > 100 µM | TGI (SF-295 CNS): > 100 µM | TGI (EKVX NSCLC): > 100 µM | TGI (SN12C renal): > 100 µM | TGI (SF-539 CNS): > 100 µM | TGI (SK-MEL-5 melanoma): 22.3 µM | TGI (RXF 393 renal): > 100 µM | TGI (MDA-MB-231 breast): > 100 µM | TGI (SR leukemia): 17.5 µM | TGI (MOLT-4 leukemia): 38.5 µM | TGI (LOX IMVI melanoma): > 100 µM | TGI (A549 NSCLC): > 100 µM | TGI (HCT-15 colon): > 100 µM | TGI (OVCAR-3 ovarian): > 100 µM | TGI (786-0 renal): > 100 µM | TGI (HOP-92 NSCLC): > 100 µM | TGI (HL-60(TB) leukemia): 31.4 µM | TGI (NCI-H226 lung): > 100 µM | TGI (HCT-116 colon): > 100 µM | TGI (SK-MEL-2 melanoma): 51.3 µM | TGI (NCI-H23 lung): > 100 µM

CCOC(=O)c1c(SC(=O)C(C)(C)Oc2ccc(Cl)cc2)n(-c2ccccc2)c(=S)n(-c2ccccc2)c1=O
TGI (ACHN renal): 44.4 µM | TGI (U251 CNS): 41 µM | TGI (MCF7 breast): 57.2 µM | TGI (SW-620 colon): 55.2 µM | TGI (MDA-N): > 100 µM | TGI (COLO 205 colon): 39.3 µM | TGI (HOP-62 NSCLC): 60.1 µM | TGI (OVCAR-5 ovarian): > 100 µM | TGI (K-562 leukemia): > 100 µM | TGI (SNB-19 CNS): > 100 µM | TGI (OVCAR-4 ovarian): > 100 µM | TGI (T-47D breast): > 100 µM | TGI (TK-10 renal): > 100 µM | TGI (MALME-3M melanoma): 72.7 µM | TGI (IGROV1 ovarian): 36 µM | TGI (A498 renal): 98.9 µM | TGI (UACC-257 melanoma): > 100 µM | TGI (NCI-H522 lung): 84.3 µM | TGI (SNB-75 CNS): > 100 µM | TGI (HT29 colon): 66.4 µM | TGI (HCC-2998 colon): > 100 µM | TGI (NCI/ADR-RES ovarian): > 100 µM | TGI (UACC-62 melanoma): > 100 µM | TGI (OVCAR-8 ovarian): 42.1 µM | TGI (HS 578T breast): > 100 µM | TGI (CCRF-CEM leukemia): 75.5 µM | TGI (M14 melanoma): > 100 µM | TGI (KM12 colon): 50 µM | TGI (MDA-MB-435): > 100 µM | TGI (SK-OV-3 ovarian): > 100 µM | TGI (SF-295 CNS): > 100 µM | TGI (EKVX NSCLC): > 100 µM | TGI (SK-MEL-28 melanoma): > 100 µM | TGI (SF-268 CNS): 43.9 µM | TGI (SN12C renal): 67.8 µM | TGI (SF-539 CNS): 41.7 µM | TGI (RXF 393 renal): 73.4 µM | TGI (NCI-H460 lung): 52.8 µM | TGI (CAKI-1 renal): > 100 µM | TGI (MDA-MB-231 breast): 47.9 µM | TGI (SR leukemia): 52.3 µM | TGI (MOLT-4 leukemia): 58 µM | TGI (LOX IMVI melanoma): > 100 µM | TGI (A549 NSCLC): 65.3 µM | TGI (HCT-15 colon): > 100 µM | TGI (OVCAR-3 ovarian): > 100 µM | TGI (786-0 renal): > 100 µM | TGI (HOP-92 NSCLC): > 100 µM | TGI (HL-60(TB) leukemia): > 100 µM | TGI (NCI-H226 lung): > 100 µM | TGI (HCT-116 colon): 49 µM | TGI (DU-145 prostate): > 100 µM | TGI (NCI-H23 lung): > 100 µM
